Test results from patent US11617726B2, “Method for preventing, treating, or ameliorating a microbial infection” (priority 2018, dated 2023).
Values after ≈ are worked out from the molar mass of the structure shown. Like-named read-outs stand apart in the source and are kept apart here.

Experiments:
[1] = test system: Acinetobacter baumannii isolates and Acinetobacter baumannii ATCC BAA 747; experiment: MIC determination by broth dilution method (CLSI M07-A9); type: cell-based; conditions: Acinetobacter baumannii
Description: (§1) Minimum Inhibitory Concentration (MIC) is the lowest concentration of an antimicrobial agent that prevents visible growth of a microorganism in an agar or broth dilution susceptibility test. MIC of thymoquinone was determined by the broth dilution method against 33 MDR Acinetobacter baumannii strains and standard sensitive culture collection strain of Acinetobacter baumannii and Pseudomonas aeruginosa. The MIC of gentamicin was deter lined by broth dilution method against six MDR Acinetobacter baumannii strains and standard sensitive culture collection strains of Acinetobacter baumannii and Pseudomonas aeruginosa. MIC testing was performed according to the recommendations and guidelines of Clinical Laboratory Standard Institutes (CLSI M07-A9; 2012). Clinical and Laboratory Standards Institute (CLSI), “Methods for Dilution Antimicrobial Susceptibility Tests for Bacteria That Grow Aerobically; Approved Standard,” Document M07-A9, Clinical and Laboratory Standards Institute (CLSI), Wayne, Pa., USA, 2012.
(§2) Twenty-one grams of Mueller-Hinton Broth (MHB) was suspended in 1 Liter distilled water and then boiled to dissolve the powder completely. The medium was sterilized by autoclaving at 121° C. for 15 min. After autoclaving, the medium was cooled to room temperature before use or stored in the fridge until used.
(§3) Thymoquinone was weighed and dissolved in Dimethyl sulfoxide (DMSO) to produce a thymoquinone stock solution with a concentration of 5,120 μg/ml. Gentamicin sulfate was weighed and dissolved in water to produce a gentamicin sulfate stock solution with a concentration of 5,120 μg/ml, equivalent to gentamicin base.
(§4) Dilutions of thymoquinone and gentamicin sulfate stock solutions were prepared volumetrically in the MHB as follows:
(§5) One mL of original stock solution (5,120 μg/ml) was added to 9 ml sterile MHB to give the working first dilution (512 μg/mL). 12 sterile 7 mL PJ tubes were arranged in a rack in a row. Each tube contained one mL sterile MHB. Ten tubes were labeled as 128 μg/mL, 64 μg/mL, 32 μg/mL, 16 μg/mL, 8 μg/mL, 4 μg/mL, 2 μg/mL, 1 μg/mL, 0.5 μg/mL and 0.25 μg/mL. The eleventh and twelfth tubes were labeled as positive and negative control, respectively.
(§6) The working dilution (512 μg/mL) was serially diluted to give two-fold dilutions. One mL of the working dilution (512 μg/mL) was dispensed in the first tube (labeled as 128 μg/mL) to give a concentration of 256 μg drug/mL MHB. One mL of the first tube was added to the second tube (labeled as 64 μg/mL) to give a concentration of 128 μg drug/mL MHB. One mL of the second tube was transferred to the third tube (labeled as 32 μg/mL) to give a concentration of 64 μg drug/mL MHB. One mL of the third tube was added to the fourth tube (labeled as 16 μg/mL) to give a concentration of 32 μg drug/mL MHB. One mL of the fourth tube was dispensed in the fifth tube (labeled as 8 μg/mL) to give a concentration of 16 μg drug/mL MHB. One mL of the fifth tube was dispensed in the sixth tube (labeled as 4 μg/mL) to give a concentration of 8 μg drug/mL MHB. One mL of the sixth tube was added to the seventh tube (labeled as 2 μg/mL) to give a concentration of 4 μg drug/mL MHB. One mL of the seventh tube was added to the eighth tube (labeled as 1 μg/mL) to give a concentration of 2 μg drug/mL MHB. One mL of the eighth tube was transferred to the ninth tube (labeled as 0.5 μg/mL) to give a concentration of 1 μg drug/mL MHB. One mL of the ninth tube was transferred to the tenth tube (labeled as 0.25 μg/mL) to give a concentration of 0.5 μg drug/mL MHB. The contents were mixed thoroughly by pipetting up and down three times. One mL of the content of the tenth tube was discarded.
(§7) The inoculum suspensions (at 1-2×10^8 CFU/mL) were diluted 1:100 in MHB to obtain 1×10^6 CFU/mL. One mL of the diluted inoculum suspension (1×10^6 CFU/mL) was transferred to each tube except tube 12.
(§8) All inoculated tubes were incubated for 16-20 hours at 37° C. aerobically. […]

[2] = test system: Pseudomonas aeruginosa ATCC 27853; experiment: as above; type: cell-based; conditions: Pseudomonas aeruginosa, ATCC27853, P. aeruginosa ATCC 27853, read-out: MIC
Description: as §1, §2, §3, §4, §5, §6, §7, §8

CC1=CC(=O)C(C(C)C)=CC1=O [Thymoquinone, 2-isopropyl-5-methylbenzo-1,4-quinone]
MIC ([1]; BAA747, A. baumannii ATCC BAA 747 (standard sensitive strain), read-out: MIC): 32 µg/mL (≈ 195 µM) | MIC ([1]; BAA747, isolate AB1, read-out: MIC): 32 µg/mL (≈ 195 µM) | MIC ([1]; BAA747, isolate AB2, read-out: MIC): 32 µg/mL (≈ 195 µM) | MIC ([1]; BAA747, isolate AB3, read-out: MIC): 32 µg/mL (≈ 195 µM) | MIC ([1]; BAA747, isolate AB4, read-out: MIC): 32 µg/mL (≈ 195 µM) | MIC ([1]; BAA747, isolate AB5, read-out: MIC): 32 µg/mL (≈ 195 µM) | MIC ([1]; BAA747, isolate AB6, read-out: MIC): 64 µg/mL (≈ 390 µM) | MIC ([1]; BAA747, isolate AB7, read-out: MIC): 32 µg/mL (≈ 195 µM) | MIC ([1]; BAA747, isolate AB8, read-out: MIC): 32 µg/mL (≈ 195 µM) | MIC ([1]; BAA747, isolate AB9, read-out: MIC): 32 µg/mL (≈ 195 µM) | MIC ([1]; BAA747, isolate AB10, read-out: MIC): 16 µg/mL (≈ 97.4 µM) | MIC ([1]; BAA747, isolate AB11, read-out: MIC): 32 µg/mL (≈ 195 µM) | MIC ([1]; BAA747, isolate AB12, read-out: MIC): 32 µg/mL (≈ 195 µM) | MIC ([1]; BAA747, isolate AB13, read-out: MIC): 32 µg/mL (≈ 195 µM) | MIC ([1]; BAA747, isolate AB14, read-out: MIC): 32 µg/mL (≈ 195 µM) | MIC ([1]; BAA747, isolate AB15, read-out: MIC): 32 µg/mL (≈ 195 µM) | MIC ([1]; BAA747, isolate AB16, read-out: MIC): 64 µg/mL (≈ 390 µM) | MIC ([1]; BAA747, isolate AB17, read-out: MIC): 64 µg/mL (≈ 390 µM) | MIC ([1]; BAA747, isolate AB18, read-out: MIC): 32 µg/mL (≈ 195 µM) | MIC ([1]; BAA747, isolate AB19, read-out: MIC): 64 µg/mL (≈ 390 µM) | MIC ([1]; BAA747, isolate AB20, read-out: MIC): 64 µg/mL (≈ 390 µM) | MIC ([1]; BAA747, isolate AB21, read-out: MIC): 32 µg/mL (≈ 195 µM) | MIC ([1]; BAA747, isolate AB22, read-out: MIC): 64 µg/mL (≈ 390 µM) | MIC ([1]; BAA747, isolate AB23, read-out: MIC): 32 µg/mL (≈ 195 µM) | MIC ([1]; BAA747, isolate AB24, read-out: MIC): 32 µg/mL (≈ 195 µM) | MIC ([1]; BAA747, isolate AB25, read-out: MIC): 32 µg/mL (≈ 195 µM) | MIC ([1]; BAA747, isolate AB26, read-out: MIC): 64 µg/mL (≈ 390 µM) | MIC ([1]; BAA747, isolate AB27, read-out: MIC): 64 µg/mL (≈ 390 µM) | MIC ([1]; BAA747, isolate AB28, read-out: MIC): 64 µg/mL (≈ 390 µM) | MIC ([1]; BAA747, isolate AB29, read-out: MIC): 64 µg/mL (≈ 390 µM) | MIC ([1]; BAA747, isolate AB30, read-out: MIC): 32 µg/mL (≈ 195 µM) | MIC ([1]; BAA747, isolate AB31, read-out: MIC): 32 µg/mL (≈ 195 µM) | MIC ([1]; BAA747, isolate AB32, read-out: MIC): 32 µg/mL (≈ 195 µM) | MIC ([1]; BAA747, isolate AB33, read-out: MIC): 32 µg/mL (≈ 195 µM) | MIC [2]: 64 µg/mL (≈ 390 µM)
